What all share (format): physicochemical
Data set [1] in a line: Antioxidant activity assessed as inhibition of lipid peroxidation at 100 uM after 1 hr by TBARS assay.
A short description of data set [2]: Antioxidant activity assessed as inhibition of lipid peroxidation after 1 hr by TBARS assay.
The nature of data set [3]: Antioxidant activity assessed as DPPH free radical scavenging activity at 100 uM after 60 mins by spectrophotometry. Particulars: 1 h. (In general: Loss of DPPH colour is used to gauge radical scavenging.)
Data set [4] in a line: Antioxidant activity assessed as DPPH free radical scavenging activity after 60 mins by spectrophotometry.

Our source for the Imax and IC50 values is ChEMBL document CHEMBL3351533, “PASS-assisted design, synthesis and antioxidant evaluation of new butylated hydroxytoluene derivatives” (Eur J Med Chem, 2014).

The term IC50 denotes the concentration needed to halve the response being measured. For the compound `COc1ccc(-n2c(S)nnc2CSCc2cc(C(C)(C)C)c(O)c(C(C)(C)C)c2)cc1`, the Imax was 86.43% in data set [1] and 52.94% in data set [3]. The figures for the 50% inhibitory concentration (IC50) in data set [2] and in data set [4] were 2.85 µM and 92.7 µM, respectively.

For `COc1ccccc1NC(=S)NNC(=O)CSCc1cc(C(C)(C)C)c(O)c(C(C)(C)C)c1`, the results for the Imax in data set [1] and in data set [3] were 94.75% and 75.42%, respectively. For the same compound, the half-inhibitory concentration (IC50) in data set [2] was 60.5 µM; in data set [4], 52 µM.

For the compound `Cc1cc(C(C)(C)C)c(O)c(C(C)(C)C)c1` [BUTYLATED HYDROXYTOLUENE], the Imax in data set [1] is given as 79.45%; in data set [3], 25.23%. Further, the IC50 is 36.7 µM in data set [2] and above 100 µM in data set [4].

On to `COc1ccc(Nc2nnc(CSCc3cc(C(C)(C)C)c(O)c(C(C)(C)C)c3)s2)cc1`, for which the Imax amounted to 89.84% in data set [1] and 59.29% in data set [3]. Further, the IC50 in data set [2] came out at 7.98 µM; in data set [4], 76.8 µM.

As for `COc1ccc(NC(=S)NNC(=O)CSCc2cc(C(C)(C)C)c(O)c(C(C)(C)C)c2)cc1`, the figures for the Imax in data set [1] and in data set [3] were 96.58% and 76.76%, respectively. The IC50 in data set [2] was found to be 30.1 µM; in data set [4], 50.9 µM.

For the compound `O=C1O[C@H]([C@@H](O)CO)C(O)=C1O` [ASCORBIC ACID], the Imax in data set [3] worked out at 71.39%. In data set [4], the IC50 worked out at 67.8 µM.

Consider `Cc1c(C)c2c(c(C)c1O)CC[C@@](C)(CCC[C@H](C)CCC[C@H](C)CCCC(C)C)O2` [ALPHA-TOCOPHEROL], for which the Imax in data set [1] is 84.69%. Moreover, the IC50 in data set [2] worked out at 5.63 µM.

As to `COc1ccccc1-n1c(S)nnc1CSCc1cc(C(C)(C)C)c(O)c(C(C)(C)C)c1`, the Imax is reported as 76.47% in data set [1] and 27.83% in data set [3]. The IC50 in data set [2] was 38.9 µM; in data set [4] it was above 100 µM.

For `COc1ccccc1Nc1nnc(CSCc2cc(C(C)(C)C)c(O)c(C(C)(C)C)c2)s1`, the figures for the Imax in data set [1] and in data set [3] were 89.18% and 54.69%, respectively. The figures for the IC50 in data set [2] and in data set [4] were 13.2 µM and 90.8 µM, respectively.

Consider `CC(C)(C)c1cc(CSCC(=O)O)cc(C(C)(C)C)c1O`, for which the Imax in data set [1] was determined as 73.99%; in data set [3], 51.2%. Besides, the IC50 in data set [2] worked out at 38.8 µM; in data set [4] it was 96.7 µM.
